Source: PubChem BioAssay (NCI)
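Following 48 hours of exposure in 96-well plates, responses at five concentrations were used to interpolate endpoints linearly. The concentration for 50% growth inhibition is given as GI50. TGI is the concentration that stops growth completely.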

Assays:
Experiment in all cases: DTP human tumour cell line panel, 48 h
HOP-92 NSCLC = system: HOP-92 NSCLC
HT29 colon = system: HT29 colon
KM12 colon = system: KM12 colon
M14 melanoma = system: M14 melanoma
MDA-MB-435 = system: MDA-MB-435
MDA-N = system: MDA-N
RPMI-8226 leukemia = system: RPMI-8226 leukemia
SF-295 CNS = system: SF-295 CNS
T-47D breast = system: T-47D breast
SK-MEL-5 melanoma = system: SK-MEL-5 melanoma
MALME-3M melanoma = system: MALME-3M melanoma

Compound	TGI (HOP-92 NSCLC) [µM]	TGI (HT29 colon) [µM]	TGI (KM12 colon) [µM]	TGI (M14 melanoma) [µM]	TGI (MDA-MB-435) [µM]	TGI (MDA-N) [µM]	TGI (RPMI-8226 leukemia) [µM]	TGI (SF-295 CNS) [µM]	TGI (T-47D breast) [µM]	GI50 (HT29 colon) [µM]	GI50 (KM12 colon) [µM]	GI50 (MDA-MB-435) [µM]	GI50 (T-47D breast) [µM]	TGI (SK-MEL-5 melanoma) [µM]	TGI (MALME-3M melanoma) [µM]	GI50 (HOP-92 NSCLC) [µM]	GI50 (MALME-3M melanoma) [µM]	GI50 (RPMI-8226 leukemia) [µM]	GI50 (SF-295 CNS) [µM]	GI50 (SK-MEL-5 melanoma) [µM]
COc1cc(C2c3c(ccc4ccccc34)C(=O)C3CCC(=O)N32)cc(OC)c1OC (stereo not drawn)	> 50	> 50	> 50	> 50	> 50	> 50	> 50	> 50	> 50	–	–	–	–	–	–	–	–	–	–	–
CN1CCC(CNc2cc(C3(C(=O)Nc4cc(C(=O)Nc5ccc(Cl)c(C(F)(F)F)c5)ccc4F)CC3)ncn2)CC1	–	5.09	6.91	–	4.04	–	–	–	26.8	1.73	2.58	1.84	4.14	–	–	–	–	–	–	–
CCNCCNC(=O)c1ccc(I)cc1	> 100	> 100	> 100	> 100	–	–	> 100	–	–	–	–	–	–	> 100	–	–	–	–	–	–
C1=C(c2ccccc2)SC(N2CCCCC2)S1 (stereo not drawn)	> 100	> 100	> 100	> 100	–	–	> 100	> 100	–	–	–	–	–	–	> 100	–	–	–	–	–
N=C1C(=N)c2ccccc2-c2ccccc21.[Cl-].[Ru+2].c1ccc(-c2ccccn2)nc1.c1ccc(-c2ccccn2)nc1	> 100	> 100	> 100	> 100	–	–	–	> 100	–	–	–	–	–	> 100	> 100	–	–	–	–	–
O=c1[nH]/c(=C/c2ccc(OCc3ccccc3)cn2)c(=O)[nH]/c1=C/c1ccccc1	> 100	> 100	> 100	> 100	0.567	–	> 100	> 100	> 100	–	–	–	–	–	–	–	–	–	–	–
COC1=NCc2ccccc2-c2ccccc21	–	> 100	> 100	–	–	–	–	> 100	–	–	–	–	–	> 100	> 100	–	–	–	–	–
C=CCSC1=N/C(=C\c2ccc(Cl)cc2)C(=O)N1CC=C	82.2	> 100	97.7	> 100	> 100	> 100	52.9	> 100	63.5	–	–	–	–	31	–	–	–	–	–	–
CCCCCOc1ccc(C=Nc2ccc(CCc3ccc(N=Cc4ccc(OCCCCC)cc4)cc3)cc2)cc1	> 100	> 100	> 100	–	–	–	> 100	> 100	–	–	–	–	–	> 100	> 100	–	–	–	–	–
Cc1ccc2c(c1)-c1nc(N)c(C#N)c(-c3ccc(Cl)cc3)c1CCS2(=O)=O	> 100	63.2	> 100	–	> 100	> 100	–	–	> 100	–	–	–	–	40.2	> 100	–	–	–	–	–
COC1CC(N)(c2ccccc2)C(O)C(C)O1 (stereo not drawn)	> 100	–	–	> 100	> 100	> 100	> 100	> 100	> 100	–	–	–	–	> 100	> 100	–	–	–	–	–
NC(=O)Nc1c(Cl)cc(S(N)(=O)=O)cc1Cl	> 100	> 100	> 100	> 100	> 100	> 100	> 100	> 100	–	–	–	–	–	> 100	> 100	–	–	–	–	–
C=CCC1(C#N)C(=S)NC2=C(C(=O)CC(C)(C)C2)C1c1ccccc1 (stereo not drawn)	90.2	> 100	> 100	> 100	> 100	> 100	> 100	–	> 100	–	–	–	–	> 100	–	–	–	–	–	–
CCOC(=O)C(C#N)(Cc1c[nH]c2ccccc12)NC(C)=O (stereo not drawn)	> 100	> 100	> 100	> 100	–	–	> 100	> 100	–	–	–	–	–	> 100	> 100	–	–	–	–	–
Cc1ccc(C(=N)c2ccccc2Cc2cccc3ccccc23)c2ccccc12	> 100	> 100	> 100	> 100	> 100	–	–	> 100	> 100	–	–	–	–	> 100	> 100	–	–	–	–	–
O=C(O)CCc1nc2c(n1-c1ccccc1)C(=O)c1ccccc1C2=O	61.3	> 100	> 100	> 100	> 100	> 100	> 100	> 100	> 100	–	–	–	–	> 100	–	–	–	–	–	–
O=C1c2cccc([N+](=O)[O-])c2C(=O)N1Cc1ccccc1	> 100	> 100	> 100	> 100	> 100	> 100	> 100	> 100	> 100	–	–	–	–	> 100	–	–	–	–	–	–
Cc1cc([NH-])c([NH-])cc1C.[Cl][Pt+2][Cl]	40.7	40	> 100	–	–	–	60.2	16.1	–	16.6	24.5	–	–	25.3	36.6	16.2	18	9.49	3.36	9.48
CCN(CCCOc1ccccc1)CCN(CC)CCCOc1ccccc1	–	27.4	27.8	34.6	34.2	–	10.4	41	–	–	–	–	–	5.44	32	–	–	–	–	–
CCCCN(CCCC)Cc1cc(Nc2ccnc3cc(Cl)ccc23)ccc1O	22.9	> 100	> 100	–	–	–	> 100	–	> 100	0.491	> 100	–	35.9	> 100	> 100	0.982	24.5	6.6	–	8.29
C[C@@]1(O)C2CC3CC1(c1ccccc1)CC(/C3=N/O)/C2=N\O (stereo partly drawn)	> 100	> 100	> 100	> 100	> 100	–	–	> 100	> 100	–	–	–	–	> 100	> 100	–	–	–	–	–
C=CCn1c(=O)c(C)cn(COCCO)c1=O	> 100	> 100	> 100	> 100	> 100	> 100	> 100	–	> 100	–	–	–	–	> 100	> 100	–	–	–	–	–
CCn1nc(C)c2c1C(=O)NCC(=O)N2	> 100	> 100	> 100	> 100	> 100	> 100	–	> 100	–	–	–	–	–	> 100	–	–	–	–	–	–
